Experiments:
[1] = target: T1, Prostaglandin D2 receptor 2 (Homo sapiens, UniProt Q9Y5Y4); test: Inhibition of beta-arrestin translocation at human chemoattractant receptor-homologous molecule expressed on TH2 cells in BRET assay; assay type: functional, cell-based
T1 sequence (Q9Y5Y4 whole entry): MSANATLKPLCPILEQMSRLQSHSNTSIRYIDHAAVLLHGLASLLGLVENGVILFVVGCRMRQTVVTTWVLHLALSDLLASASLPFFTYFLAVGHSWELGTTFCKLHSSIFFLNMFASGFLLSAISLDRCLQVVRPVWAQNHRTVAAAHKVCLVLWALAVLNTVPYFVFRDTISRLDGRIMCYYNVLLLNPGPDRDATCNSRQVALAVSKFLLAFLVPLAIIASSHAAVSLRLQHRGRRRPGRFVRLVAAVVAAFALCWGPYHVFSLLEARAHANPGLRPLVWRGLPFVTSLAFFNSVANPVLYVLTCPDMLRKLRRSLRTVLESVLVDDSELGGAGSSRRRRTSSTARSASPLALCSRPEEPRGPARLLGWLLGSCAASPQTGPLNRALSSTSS

Thromboxane A2 receptor [2] = target: T2, Thromboxane A2 receptor (Homo sapiens, UniProt P21731); test: Inhibition of [3H]SQ-29,548 binding to human Thromboxane A2 receptor
T2 sequence (P21731 whole entry): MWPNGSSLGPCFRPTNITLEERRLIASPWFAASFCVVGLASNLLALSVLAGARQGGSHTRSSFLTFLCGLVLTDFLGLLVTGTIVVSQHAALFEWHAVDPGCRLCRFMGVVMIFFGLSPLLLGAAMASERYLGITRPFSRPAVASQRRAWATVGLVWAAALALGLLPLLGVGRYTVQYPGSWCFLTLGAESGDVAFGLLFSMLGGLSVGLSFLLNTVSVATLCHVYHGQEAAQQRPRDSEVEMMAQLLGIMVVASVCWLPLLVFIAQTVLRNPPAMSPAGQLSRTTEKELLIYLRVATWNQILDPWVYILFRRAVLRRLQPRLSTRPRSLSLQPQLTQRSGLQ

Thromboxane A2 receptor [3] = target: T2, Thromboxane A2 receptor; test: Inhibition of U-46,619-induced inositol phosphate accumulation at human Thromboxane A2 receptor; assay type: functional
[4] = target: T1, Prostaglandin D2 receptor 2; test: Inhibition of PGD2-induced inositol phosphate formation at human chemoattractant receptor-homologous molecule expressed on TH2 cells; assay type: functional, cell-based
[5] = target: T3, Prostaglandin D2 receptor (Homo sapiens, UniProt Q13258); test: Inhibition of [3H]-PGD-2 binding to human Prostaglandin D2 receptor
T3 sequence (Q13258 whole entry): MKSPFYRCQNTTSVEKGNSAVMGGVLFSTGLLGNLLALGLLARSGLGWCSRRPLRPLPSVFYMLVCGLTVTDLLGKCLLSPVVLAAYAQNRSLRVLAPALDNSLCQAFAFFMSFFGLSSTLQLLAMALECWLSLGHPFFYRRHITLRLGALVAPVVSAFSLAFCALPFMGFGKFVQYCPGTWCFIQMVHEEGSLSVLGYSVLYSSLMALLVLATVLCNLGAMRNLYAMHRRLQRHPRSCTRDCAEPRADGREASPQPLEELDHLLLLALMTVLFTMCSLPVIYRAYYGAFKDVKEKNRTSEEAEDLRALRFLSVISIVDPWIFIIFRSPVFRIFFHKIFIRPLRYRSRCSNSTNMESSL

[6] = target: T1, Prostaglandin D2 receptor 2; test: Inhibition of [3H]PGD-2 binding to human chemoattractant receptor-homologous molecule expressed on Th2 cells (CRTH2); assay type: cell-based
[7] = target: T3, Prostaglandin D2 receptor; test: Inhibition of PGD2-induced inositol phosphate formation at human Prostaglandin D2 receptor; assay type: functional
Thromboxane A2 receptor [8] = target: T2, Thromboxane A2 receptor; test: Inhibition of beta-arrestin translocation at human Thromboxane A2 receptor in BRET assay; assay type: functional

| IC50 [1] [nM] | Ki (Thromboxane A2 receptor [2]) [nM] | IC50 (Thromboxane A2 receptor [3]) [nM] | IC50 [4] [nM] | Ki [5] [nM] | Ki [6] [nM] | IC50 [7] [nM] | IC50 (Thromboxane A2 receptor [8]) [nM] | SMILES |
| --- | --- | --- | --- | --- | --- | --- | --- | --- |
| 3.8 | 540 | 1700 | 3.8 | 5300 | 0.51 | > 10000 | – | O=C(O)Cn1c2c(c3ccccc31)C[C@H](NS(=O)(=O)c1ccc(F)cc1)CC2 |
| 15 | 3000 | 4600 | 26 | 6100 | 1.9 | > 10000 | – | CN([C@@H]1CCc2c(c3ccccc3n2CCC(=O)O)C1)S(=O)(=O)c1ccc(F)cc1 |
| 28 | 4.5 | 9.6 | 29 | > 10000 | 4.3 | > 10000 | 8.4 | O=C(O)CCn1c2c(c3ccccc31)C[C@H](NS(=O)(=O)c1ccc(F)cc1)CC2 [RAMATROBAN] |

— ChEMBL document CHEMBL1144406 (J Med Chem, 2005)
